In the supplement of paper PMC10307832:

Tests used:
Test in all cases: relative viability (nuclei count vs DMSO), 5 days (fraction); higher = more cells survive
ChaGo-K-1 = test system: ChaGo-K-1
How it was run: (§1)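 Dosing by pin tool came one day after lung cancer cell lines were seeded in 1536-well plates, using either one drug or a fixed anchor-drug dose plus five library-drug doses (not always all listed) in √10 steps. After 5 days, nuclei were counted on 4× images. Relative viability is treated-well nuclei count divided by vehicle-well nuclei count, and values are medians of duplicate plates.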

EKVX = test system: EKVX
How it was run: as §1

EMC-BAC-2 = test system: EMC-BAC-2
How it was run: as §1

EPLC-272H = test system: EPLC-272H
How it was run: as §1

HCC-78 = test system: HCC-78
How it was run: as §1

HCC-827 = test system: HCC-827
How it was run: as §1

LCLC-103H = test system: LCLC-103H
How it was run: as §1

LK-2 = test system: LK-2
How it was run: as §1

LU99A = test system: LU99A
How it was run: as §1

LXF-289 = test system: LXF-289
How it was run: as §1

NCI-H1666 = test system: NCI-H1666
How it was run: as §1

NCI-H1975 = test system: NCI-H1975
How it was run: as §1

NCI-H2126 = test system: NCI-H2126
How it was run: as §1

NCI-H2342 = test system: NCI-H2342
How it was run: as §1

NCI-H23 = test system: NCI-H23
How it was run: as §1

NCI-H2405 = test system: NCI-H2405
How it was run: as §1

NCI-H322M = test system: NCI-H322M
How it was run: as §1

PC-14 = test system: PC-14
How it was run: as §1

RERF-LC-KJ = test system: RERF-LC-KJ
How it was run: as §1

SK-LU-1 = test system: SK-LU-1
How it was run: as §1

SW 1573 = test system: SW 1573
How it was run: as §1

SW 900 = test system: SW 900
How it was run: as §1

Structure (SMILES): COc1nc(C)cnc1NS(=O)(=O)c1cccnc1-c1ccc(-c2nnco2)cc1 [Zibotentan] + CC(=O)Nc1cccc(-n2c(=O)n(C3CC3)c(=O)c3c(Nc4ccc(I)cc4F)n(C)c(=O)c(C)c32)c1 [Trametinib] (partner 0.02 µM)
- relative viability (ChaGo-K-1; first compound 0.08 µM): 0.886
- relative viability (ChaGo-K-1; first compound 0.253 µM): 0.899
- relative viability (ChaGo-K-1; first compound 0.8 µM): 0.888
- relative viability (ChaGo-K-1; first compound 2.53 µM): 0.886
- relative viability (EKVX; first compound 0.08 µM): 0.33
- relative viability (EKVX; first compound 0.253 µM): 0.364
- relative viability (EKVX; first compound 0.8 µM): 0.315
- relative viability (EKVX; first compound 2.53 µM): 0.321
- relative viability (EMC-BAC-2; first compound 0.08 µM): 0.952
- relative viability (EMC-BAC-2; first compound 0.8 µM): 0.994
- relative viability (EMC-BAC-2; first compound 2.53 µM): 0.914
- relative viability (EPLC-272H; first compound 0.08 µM): 0.287
- relative viability (EPLC-272H; first compound 0.253 µM): 0.234
- relative viability (EPLC-272H; first compound 0.8 µM): 0.31
- relative viability (EPLC-272H; first compound 2.53 µM): 0.312
- relative viability (HCC-78; first compound 0.08 µM): 0.825
- relative viability (HCC-78; first compound 0.253 µM): 0.569
- relative viability (HCC-78; first compound 0.8 µM): 0.665
- relative viability (HCC-78; first compound 2.53 µM): 0.652
- relative viability (HCC-827; first compound 0.08 µM): 0.503
- relative viability (HCC-827; first compound 0.253 µM): 0.529
- relative viability (HCC-827; first compound 0.8 µM): 0.491
- relative viability (HCC-827; first compound 2.53 µM): 0.548
- relative viability (LCLC-103H; first compound 0.08 µM): 0.685
- relative viability (LCLC-103H; first compound 0.253 µM): 0.704
- relative viability (LCLC-103H; first compound 0.8 µM): 0.68
- relative viability (LCLC-103H; first compound 2.53 µM): 0.737
- relative viability (LK-2; first compound 0.08 µM): 0.881
- relative viability (LK-2; first compound 0.253 µM): 0.793
- relative viability (LK-2; first compound 0.8 µM): 0.83
- relative viability (LK-2; first compound 2.53 µM): 0.703
- relative viability (LU99A; first compound 0.08 µM): 0.598
- relative viability (LU99A; first compound 0.253 µM): 0.547
- relative viability (LU99A; first compound 0.8 µM): 0.537
- relative viability (LU99A; first compound 2.53 µM): 0.585
- relative viability (LXF-289; first compound 0.08 µM): 0.61
- relative viability (LXF-289; first compound 0.253 µM): 0.622
- relative viability (LXF-289; first compound 0.8 µM): 0.675
- relative viability (LXF-289; first compound 2.53 µM): 0.675
- relative viability (NCI-H1666; first compound 0.08 µM): 0.882
- relative viability (NCI-H1666; first compound 0.253 µM): 0.779
- relative viability (NCI-H1666; first compound 0.8 µM): 0.821
- relative viability (NCI-H1666; first compound 2.53 µM): 0.863
- relative viability (NCI-H1975; first compound 0.08 µM): 0.336
- relative viability (NCI-H1975; first compound 0.253 µM): 0.355
- relative viability (NCI-H1975; first compound 0.8 µM): 0.358
- relative viability (NCI-H1975; first compound 2.53 µM): 0.34
- relative viability (NCI-H2126; first compound 0.08 µM): 0.558
- relative viability (NCI-H2126; first compound 0.253 µM): 0.525
- relative viability (NCI-H2126; first compound 0.8 µM): 0.557
- relative viability (NCI-H2126; first compound 2.53 µM): 0.563
- relative viability (NCI-H2342; first compound 0.08 µM): 0.848
- relative viability (NCI-H2342; first compound 0.253 µM): 0.78
- relative viability (NCI-H2342; first compound 0.8 µM): 0.844
- relative viability (NCI-H2342; first compound 2.53 µM): 1.16
- relative viability (NCI-H23; first compound 0.08 µM): 0.403
- relative viability (NCI-H23; first compound 0.253 µM): 0.305
- relative viability (NCI-H23; first compound 0.8 µM): 0.349
- relative viability (NCI-H23; first compound 2.53 µM): 0.48
- relative viability (NCI-H2405; first compound 0.08 µM): 0.67
- relative viability (NCI-H2405; first compound 0.253 µM): 0.599
- relative viability (NCI-H2405; first compound 0.8 µM): 0.648
- relative viability (NCI-H2405; first compound 2.53 µM): 0.657
- relative viability (NCI-H322M; first compound 0.08 µM): 0.501
- relative viability (NCI-H322M; first compound 0.253 µM): 0.5
- relative viability (NCI-H322M; first compound 0.8 µM): 0.519
- relative viability (NCI-H322M; first compound 2.53 µM): 0.561
- relative viability (PC-14; first compound 0.08 µM): 0.833
- relative viability (PC-14; first compound 0.253 µM): 0.752
- relative viability (PC-14; first compound 0.8 µM): 0.733
- relative viability (PC-14; first compound 2.53 µM): 0.735
- relative viability (RERF-LC-KJ; first compound 0.08 µM): 0.96
- relative viability (RERF-LC-KJ; first compound 0.253 µM): 0.842
- relative viability (RERF-LC-KJ; first compound 0.8 µM): 0.804
- relative viability (RERF-LC-KJ; first compound 2.53 µM): 0.888
- relative viability (SK-LU-1; first compound 0.08 µM): 0.503
- relative viability (SK-LU-1; first compound 0.253 µM): 0.472
- relative viability (SK-LU-1; first compound 0.8 µM): 0.451
- relative viability (SK-LU-1; first compound 2.53 µM): 0.458
- relative viability (SW 1573; first compound 0.08 µM): 0.548
- relative viability (SW 1573; first compound 0.8 µM): 0.411
- relative viability (SW 1573; first compound 2.53 µM): 0.729
- relative viability (SW 900; first compound 0.08 µM): 0.893
- relative viability (SW 900; first compound 0.253 µM): 0.817
- relative viability (SW 900; first compound 0.8 µM): 0.846
- relative viability (SW 900; first compound 2.53 µM): 0.751
